Entries after “also recorded” stand apart in the source; their conditions may differ.
Tests used:
[1] = molecular target: T1, latent human 20S proteasome (Homo sapiens, UniProt P25787+P60900); assay: Chymotrypsin-like (ChT-L) activity of purified latent human 20S proteasome, Suc-LLVY-AMC substrate; assay type: biochemical; settings: for activation of ChT-L activity of 20S proteasome (in words): in vitro, latent human 20S
T1 construct: purified from erythrocytes; purchased Boston Biochem, Inc. or Enzo Life Sciences, Inc; host or cells: human erythrocytes
Description: Determination of Proteasome Activity. Human housekeeping core (20S) proteasome purified from erythrocytes was purchased from Boston Biochem, Inc. (Cambridge, Mass.) or from Enzo Life Sciences, Inc. (Farmingdale, N.Y.). […] The stock proteasome was diluted to 0.2 mg/mL working solution in “dilution buffer” (50 mM Tris/HCl, pH 8, 20% glycerol). The following model peptide substrates, releasing fluorescent 7-amino-4-methylcoumarin (AMC) reporter group after cleavage, were used: succinyl-LeuLeuValTyr-AMC (SEQ ID NO: 14) (for the ChT-L peptidase; SucLLVY-AMC; Bachem Bioscience Inc., Philadelphia, Pa.), butoxycarbonyl-LeuArgArg-AMC (T-L; Bachem Bioscience Inc., Philadelphia, Pa.) and carbobenzoxy-LeuLeuGlu-AMC (PGPH; Enzo Life Sciences Inc., Farmingdale, N.Y.). The substrates were used at concentration of 50 μM (ChT-L) or 100 μM (T-L, PGPH). Free AMC (Sigma-Aldrich, St. Louis, Mo.) was used as the standard. […] The TAT peptides, Rpt peptides (except Rpt6) and the peptide substrates were dissolved in anhydrous dimethylsulfoxide (DMSO; Sigma-Aldrich, St. Louis, Mo.) and such stock solutions were stored at −20° C. The total concentration of DMSO in final reaction mixtures never exceeded 3% (vol/vol). The Trp (tryptophan)-containing Rpt6 peptide was dissolved in ultrapure water and stored at −20° C., protected from light. The reaction was carried out in 96-well plates, in 100 μL of reaction mixture that consisted of 45 mM Tris/HCl, pH 8, 100 mM KCl, 1 mM EDTA (reaction buffer) and a fluorogenic peptide substrate, to which 200 ng (nearly […]) of proteasome were added. […] The proteasome was preincubated with a substrate for 10 min at room temperature, then 1 μL of DMSO or a desired concentration of a TAT peptide in 1 μL of DMSO were added. After mixing, the plate was transferred to a Fluoroskan Ascent plate reader (Thermo Fisher Scientific Inc., Waltham, Mass.) for 1 h (37° C.), with fluorescence readouts once per minute. To test the competition with Rpt derived peptides, the Rpt peptide (1 μM) was added before the TAT peptide to the reaction mixture. The reaction rates were calculated from a linear segment of kinetic curves constructed from measurements in 1-min intervals. Reaction rates were calculated using a linear fit performed with the Slope Analyser and Enzyme Kinetics applications launched within Origin Pro 2019 (OriginLab Corporation, Northampton, Mass.). […] The data are presented as mean±SD from at least three independent experiments.
Statistical Analysis. Experiments were performed at least in three independent replicates. The results are presented as a mean±SD. A two-tailed t-test was applied to compare the means. The comparisons were allowing for unequal variances with a Welch correction. Abundance of proteasome conformers was compared with the chi squared test and two-sample proportion test. A significance level was set at 0.05. Statistical analysis was performed using statistical procedures offered by OriginPro 2019 (OriginLabs, Northampton, Mass.). Reaction rates were calculated from a smoothed linear segment of kinetic traces using OriginPro 2019. Response curves (activity vs. compound concentration) were fitted with a nonlinear fitting application of OriginPro 2019. The AC50 and maximum activation fold was calculated based on the equations implemented to fit the response curves.

[2] = molecular target: T2, human 26S proteasome (Homo sapiens, UniProt P25787+P60900); assay: Chymotrypsin-like activity of purified human 26S proteasome, Suc-LLVY-MCA substrate; assay type: biochemical; settings: in vitro
T2 construct: purchased Boston Biochemicals (Boston Biochem)

[3] = system: Elav-gs-GAL4>UAS-APP; UAS-BACE1 flies; assay: Olfaction aversion training in fly AD model; assay type: in vivo, Drosophila melanogaster; settings: 1 μM mixed into food, 10 days
Description: Olfactory aversion training. Experiments were performed broadly (Malik, B. R. & Hodge, J. J. J Vis Exp, e50107, doi:10.3791/50107 (2014)). Animals were exposed (via an air pump) in alternation to two neutral odors (3-octanol and 4-methylcyclohexanol, prepared as a 1/10 dilution in mineral oil) for 5 minutes under low red-light and a 100V 60 Hz shock was applied during exposure to one of the two odors. The odor associated with the electric shock was alternated between vials. After three training rounds per odor, animals were given one hour to recover then placed in a T-maze (Celexplorer labs) with opposing odors from either side. Flies were allowed two minutes to explore the maze after which the maze sections were sealed and the number of flies in each chamber scored.
The compounds were tested as follows: in neuroblast MC65 cell culture model with overexpressed C99 fragment of amyloid precursor protein (APP) upon tetracycline withdrawal or with external APP added; and in fruit fly (D. melanogaster) model of AD with overexpressed APP and BACE1. The compounds (1 μM) were mixed with food. Flies were trained to recognize “positive” and “negative” odors (olfaction aversion). The compounds were also treated in hAPP (J20) mice which overexpress a familial variant of APP. The compounds were injected for 14 days (1 mg/kg). Novel Object Recognition assay was used to test learning and memory.

What does the source list for `N=C(N)NCCCC(NC(=O)CN)C(=O)NC(CCCCN)C(=O)NC(CCCCN)C(=O)NC(CCCNC(=N)N)C(=O)NC(CCCNC(=N)N)C(=O)NC(CCC(N)=O)C(=O)N1Cc2ccccc2C[C@H]1C(=O)N1C(C(=O)NC(CCCNC(N)N)C(=O)N2CCCC2C(=O)NC(CO)C(=O)O)CC2CCCCC21` (stereo partly shown) [(5), GRKKRRQ-TOD-RPS]?
AC50 ([1]; 20S proteasome AC50, Table 1, ChT-L activity, Suc-LLVY-MCA, purified human housekeeping 20S): 221 nM; AC50 ([1]; AC50 [nM] ± SE, Table 3, purified 20S proteasome in Tris/HCl buffer pH 8, ChT-L model substrate): 220 ± 89 nM; activation of ChT-L activity of 20S proteasome (in words) [1]: strongly enhance; activation of 26S proteasome (in words) [2]: strongly activate; olfaction aversion training performance [3]: Improved performance in olfaction aversion training

With `NCCCCC(N)C(=O)NC(CCCCN)C(=O)NC(CCCCN)C(=O)Nc1cc(NC(=O)C(CCCCN)NC(=O)C(CCCCN)NC(=O)C(N)CCCCN)cc(C(=O)NC(CCCCN)C(=O)NC(CCCCN)C(=O)NC(CCCCN)C(=O)O)c1` (stereo not shown) [(8)] as the molecule, how does the “activation of ChT-L activity of 20S proteasome (in words)” value [1] read?
Its value is “one of the highest activation folds for the 20S core and one of the lowest AC50; also recorded: highest fold of activation potential and a low AC50”.

What about the “activation of ChT-L activity of 20S proteasome (in words)” value ([1]; listed as Tat1-Den) of the same molecule?
The value was “one of the best proteasome activators”.

And the “activation of ChT-L activity of 20S proteasome (in words)” value ([1]; listed as Tat-Den)?
The value was “strongly enhance”.

And the “activation of 26S proteasome (in words)” value [2]?
The value was “excellent activator”.

And the “olfaction aversion training performance” value [3]?
Its value is “Improved performance in olfaction aversion training”.

Source: patent US20220332758A1, “PEPTIDE-BASED COMPOSITIONS AND METHODS FOR TREATING ALZHEIMER'S DISEASE” (Board of Regents, The Universityof Texas System, priority 2019, published 2022)
